Measured values taken from PubChem BioAssay AID330 (DTP/NCI, 2004).
“And” between values parts separate entries of the source, which are not always exact repeats. Equal values may be shown once. Inconclusive results and toxic doses are left out.

Test system: P388 leukemia ip, CD2F1 mice, survival T/C
Assay: NCI In Vivo Anticancer Drug Screen. Data for tumor model P388 Leukemia (intraperitoneal) in CD2F1 (CDF1) mice
Conditions: endpoint: median survival time, higher = longer survival
How it was run: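 Mice carrying the transplanted tumor received test compound or vehicle. Survival was recorded in each group, and the value is the treated-group measurement divided by that of the vehicle-treated control group.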

[1] = dose: 100.0 mg/kg/injection, schedule: Q01DX009 (ip), vehicle: Klucel (hydroxypropylcellulose) (HPC)
[2] = dose: 200.0 mg/kg/injection, schedule: Q01DX009 (ip), vehicle: Klucel (hydroxypropylcellulose) (HPC)
[3] = dose: 60.0 mg/kg/injection, schedule: Q01DX005 (ip), vehicle: saline
[4] = dose: 120.0 mg/kg/injection, schedule: Q01DX005 (ip), vehicle: saline
[5] = dose: 240.0 mg/kg/injection, schedule: Q01DX005 (ip), vehicle: saline
[6] = dose: 60.0 mg/kg/injection, schedule: Q01DX005 (ip), vehicle: saline with Tween-80
[7] = dose: 120.0 mg/kg/injection, schedule: Q01DX005 (ip), vehicle: saline with Tween-80
[8] = dose: 240.0 mg/kg/injection, schedule: Q01DX005 (ip), vehicle: saline with Tween-80

In the case of O=C(NC(=O)c1ccccc1F)Nc1ccc(C(F)(F)F)cc1, the T/C (dose: 50.0 mg/kg/injection, schedule: Q01DX009 (ip), vehicle: Klucel (hydroxypropylcellulose) (HPC)) is reported as 102 % of control, the T/C [1] is reported as 101 % of control and the T/C [2] is reported as 99 % of control.
With CCC1CC(C(=O)O)CC(=O)N1 (centres undefined) the T/C (dose: 17.5 mg/kg/injection, schedule: Q01DX005 (ip), vehicle: Klucel (hydroxypropylcellulose) (HPC)) was 92 % of control, the T/C (dose: 35.0 mg/kg/injection, schedule: Q01DX005 (ip), vehicle: Klucel (hydroxypropylcellulose) (HPC)) was 90 % of control and the T/C (dose: 70.0 mg/kg/injection, schedule: Q01DX005 (ip), vehicle: Klucel (hydroxypropylcellulose) (HPC)) was 97 % of control.
Nc1c(/C=C/c2cc3cc(C4=NCCN4)ccc3o2)[nH]c2cc(C3=NCCN3)ccc12 was tested, and the T/C (dose: 50.0 mg/kg/injection, schedule: Q01DX005 (ip), vehicle: Klucel (hydroxypropylcellulose) (HPC)) was 245 % of control and the T/C (dose: 100.0 mg/kg/injection, schedule: Q01DX005 (ip), vehicle: Klucel (hydroxypropylcellulose) (HPC)) was 110 % of control and 227 % of control.
With CC(=O)NC(CNC(C)C)C(=O)O (centres undefined) the T/C (dose: 50.0 mg/kg/injection, schedule: Q01DX001 (ip), vehicle: Klucel (hydroxypropylcellulose) (HPC)) was 102 % of control, the T/C (dose: 100.0 mg/kg/injection, schedule: Q01DX001 (ip), vehicle: Klucel (hydroxypropylcellulose) (HPC)) was 106 % of control and the T/C (dose: 200.0 mg/kg/injection, schedule: Q01DX001 (ip), vehicle: Klucel (hydroxypropylcellulose) (HPC)) was 98 % of control.
With CCOC=Nc1c(N)ncnc1Cl the T/C [1] was 102 % of control, the T/C [2] was 105 % of control and the T/C (dose: 400.0 mg/kg/injection, schedule: Q01DX009 (ip), vehicle: Klucel (hydroxypropylcellulose) (HPC)) was 106 % of control.
With CCOc1nc(N)nc(C)c1N=Nc1ccc(O)cc1 the T/C [3] was 100 % of control, the T/C [4] was 99 % of control and the T/C [5] was 96 % of control.
With CN(C)c1ncnc2c1ccn2C1OC(CO)C(O)C1O (centres undefined) the T/C (dose: 6.25 mg/kg/injection, schedule: Q01DX005 (ip), vehicle: Klucel (hydroxypropylcellulose) (HPC)) was 106 % of control, the T/C (dose: 12.5 mg/kg/injection, schedule: Q01DX005 (ip), vehicle: Klucel (hydroxypropylcellulose) (HPC)) was 109 % of control and the T/C (dose: 25.0 mg/kg/injection, schedule: Q01DX005 (ip), vehicle: Klucel (hydroxypropylcellulose) (HPC)) was 117 % of control.
In the case of N#Cc1c2c(c(Cl)n3c1nc1ccccc13)CCC2, the T/C [6] is reported as 100 % of control, the T/C [7] is reported as 91 % of control and the T/C [8] is reported as 91 % of control.
In the case of c1c(-c2cc(C3CC3)[nH]n2)n[nH]c1C1CC1, the T/C [3] is reported as 101 % of control, the T/C [4] is reported as 97 % of control and the T/C [5] is reported as 100 % of control.
With COCOCC(N)CS(C)=O (centres undefined) the T/C (dose: 50.0 mg/kg/injection, schedule: Q01DX005 (ip), vehicle: water) was 105 % of control, the T/C (dose: 100.0 mg/kg/injection, schedule: Q01DX005 (ip), vehicle: water) was 97 % of control and the T/C (dose: 200.0 mg/kg/injection, schedule: Q01DX005 (ip), vehicle: water) was 102 % of control.
In the case of CC(/C=N\Nc1ccc(Cl)cc1)=N/NC(=O)C[N+](C)(C)C, the T/C (dose: 100.0 mg/kg/injection, schedule: Q04DX002 (ip), vehicle: saline) is reported as 101 % of control, the T/C (dose: 200.0 mg/kg/injection, schedule: Q04DX002 (ip), vehicle: saline) is reported as 100 % of control and the T/C (dose: 400.0 mg/kg/injection, schedule: Q04DX002 (ip), vehicle: saline) is reported as 92 % of control.
With CCOC(OCC)c1ccc([N+](=O)[O-])cc1 the T/C (dose: 100.0 mg/kg/injection, schedule: Q04DX003 (ip), vehicle: saline with Tween-80) was 106 % of control, the T/C (dose: 200.0 mg/kg/injection, schedule: Q04DX003 (ip), vehicle: saline with Tween-80) was 100 % of control and the T/C (dose: 400.0 mg/kg/injection, schedule: Q04DX003 (ip), vehicle: saline with Tween-80) was 117 % of control.
In the case of COc1ccc(-c2cn(-c3ccc(I)cc3)c3ncnc(N)c23)cc1, the T/C [6] is reported as 99 % of control, the T/C [7] is reported as 105 % of control and the T/C [8] is reported as 90 % of control.
For NC(=O)c1[nH]c(N=Nc2ccc(S(N)(=O)=O)cc2)nc1N, the T/C (dose: 100.0 mg/kg/injection, schedule: Q04DX003 (ip), vehicle: Klucel (hydroxypropylcellulose) (HPC)) was 100 % of control, the T/C (dose: 200.0 mg/kg/injection, schedule: Q04DX003 (ip), vehicle: Klucel (hydroxypropylcellulose) (HPC)) was 101 % of control and the T/C (dose: 400.0 mg/kg/injection, schedule: Q04DX003 (ip), vehicle: Klucel (hydroxypropylcellulose) (HPC)) was 94 % of control.
CCSC(SCC)C(NC(C)=O)C(OC(C)=O)C(OC(C)=O)C(COC(C)=O)OC(C)=O (centres undefined) was tested, and the T/C (dose: 12.5 mg/kg/injection, schedule: Q01DX009 (ip), vehicle: other) was 107 % of control, the T/C (dose: 25.0 mg/kg/injection, schedule: Q01DX009 (ip), vehicle: other) was 107 % of control and the T/C (dose: 50.0 mg/kg/injection, schedule: Q01DX009 (ip), vehicle: other) was 95 % of control. For the same compound, the T/C (dose: 100.0 mg/kg/injection, schedule: Q01DX009 (ip), vehicle: other) was 107 % of control and the T/C (dose: 200.0 mg/kg/injection, schedule: Q01DX009 (ip), vehicle: other) was 98 % of control.
O=C1c2ccccc2C(=O)c2c1c(Cl)cc1c(=O)c3cc(Cl)cc(Cl)c3[nH]c21 was tested, and the T/C (dose: 50.0 mg/kg/injection, schedule: Q01DX005 (ip), vehicle: saline with Tween-80) was 99 % of control, the T/C (dose: 100.0 mg/kg/injection, schedule: Q01DX005 (ip), vehicle: saline with Tween-80) was 95 % of control and the T/C (dose: 200.0 mg/kg/injection, schedule: Q01DX005 (ip), vehicle: saline with Tween-80) was 92 % of control.
